Results from patent US11000033B2, “Ketone or oxime compound, and herbicide” (NISSAN CHEMICAL CORPORATION, priority 2014, dated 2021).

Key:
Type in all cases: in vivo
Scirpus juncoides = experiment: Test Example 1: herbicidal activity, application before weed generation in submerged conditions (symbol B); conditions: application herbicide amount 320 g/ha
How it was run: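 Compound emulsion was diluted to a set herbicide amount and applied to the water surface on the sowing day, into submerged (4 cm) alluvial-soil pots sown with mixed weed seeds and transplanted 2.5-leaf rice. Pots were held in a 25–30 °C greenhouse, and weeds were scored 0–5 by herbicidal ratio after 3 weeks.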

[1] = system: Echinochloa crus-galli var. crus-galli; experiment: Test Example 4: herbicidal effect by soil treatment (symbol H); conditions: application herbicide amount 320 g/ha
How it was run: (§1)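 Seeds were sown in sterilized diluvial soil, covered with about 1.5 cm of soil, and the soil surface was sprayed with a water-diluted emulsion of the compound at a predetermined rate. Plants grew in a greenhouse at 25° C. to 30° C.; effects were scored visually 3 weeks after application.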

Abutilon theophrasti = experiment: Test Example 4: herbicidal effect by soil treatment (symbol M); conditions: application herbicide amount 320 g/ha
How it was run: as §1

Lolium multiflorum Lam. = experiment: Test Example 5: herbicidal effect by foliage application, plastic box (symbol K); conditions: 320 g/ha, 3 weeks after application
How it was run: (§2)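 Effect is rated 3 weeks after a foliar spray of water-diluted emulsion concentrate at a predetermined herbicide amount. Plants had grown 14 days in a 25° C. to 30° C. greenhouse from seed in sterilized diluvial soil.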

Apera spica-venti = experiment: Test Example 5: herbicidal effect by foliage application, plastic box (symbol L); conditions: 320 g/ha, 3 weeks after application
How it was run: as §2

Amaranthus retroflexus = experiment: Test Example 5: herbicidal effect by foliage application, plastic box (symbol N); conditions: 320 g/ha, 3 weeks after application
How it was run: as §2

rice plant = experiment: Test Example 5: effect on crop by foliage application, plastic box (symbol b); conditions: 320 g/ha, 3 weeks after application
How it was run: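 Box culture: sterile diluvial soil, seeds spot-sown, ~1.5 cm cover, raised under glass at 25–30° C.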

SMILES	Herbicidal effect grade, B: Scirpus juncoides (Scirpus juncoides)	H (Echinochloa crus-galli var. crus-galli) herbicidal effect grade [1]	M (Abutilon theophrasti) herbicidal effect grade (Abutilon theophrasti)	K: Lolium multiflorum Lam., herbicidal effect grade (Lolium multiflorum Lam.)	L: Apera spica-venti, herbicidal effect grade (Apera spica-venti)	N: Amaranthus retroflexus, herbicidal effect grade (Amaranthus retroflexus)	b: directly sowed rice plant, effect on crop grade (rice plant)
CSCCON=C(C)CC1CC(O)=C(c2c(C)cc(C)cc2C)C1=O (stereo not drawn) [1-029]	0 (Herbicidal ratio of 5% or lower (almost no effect))	5 (Herbicidal ratio of 90% or more (almost completely withered))	0 (Herbicidal ratio of 5% or lower (almost no effect))	5 (Herbicidal ratio of 90% or more (almost completely withered))	5 (Herbicidal ratio of 90% or more (almost completely withered))	0 (Herbicidal ratio of 5% or lower (almost no effect))	5 (Herbicidal ratio of 90% or more (almost completely withered))
CON=CC(C)(C)C1CC(O)=C(c2c(C)cc(C)cc2C)C1=O (stereo not drawn) [1-030]	0 (Herbicidal ratio of 5% or lower (almost no effect))	2 (Herbicidal ratio of 20% or higher and lower than 40%)	0 (Herbicidal ratio of 5% or lower (almost no effect))	5 (Herbicidal ratio of 90% or more (almost completely withered))	4 (Herbicidal ratio of 70% or higher and lower than 90%)	0 (Herbicidal ratio of 5% or lower (almost no effect))	5 (Herbicidal ratio of 90% or more (almost completely withered))
CON=C(C)C(C)C1CC(O)=C(c2c(C)cc(C)cc2C)C1=O (stereo not drawn) [1-032]	5 (Herbicidal ratio of 90% or more (almost completely withered))	5 (Herbicidal ratio of 90% or more (almost completely withered))	4 (Herbicidal ratio of 70% or higher and lower than 90%)	5 (Herbicidal ratio of 90% or more (almost completely withered))	5 (Herbicidal ratio of 90% or more (almost completely withered))	3 (Herbicidal ratio of 40% or higher and lower than 70%)	5 (Herbicidal ratio of 90% or more (almost completely withered))
CON=C(C)CC1CC(OC(=O)C2(C)CC2(Cl)Cl)=C(c2c(C)cc(C)cc2C)C1=O (stereo not drawn) [1-036]	4 (Herbicidal ratio of 70% or higher and lower than 90%)	5 (Herbicidal ratio of 90% or more (almost completely withered))	5 (Herbicidal ratio of 90% or more (almost completely withered))	5 (Herbicidal ratio of 90% or more (almost completely withered))	5 (Herbicidal ratio of 90% or more (almost completely withered))	4 (Herbicidal ratio of 70% or higher and lower than 90%)	5 (Herbicidal ratio of 90% or more (almost completely withered))
CON=C(C)CC1CC(OC(=O)C(C)(C)F)=C(c2c(C)cc(C)cc2C)C1=O (stereo not drawn) [1-039]	5 (Herbicidal ratio of 90% or more (almost completely withered))	5 (Herbicidal ratio of 90% or more (almost completely withered))	5 (Herbicidal ratio of 90% or more (almost completely withered))	5 (Herbicidal ratio of 90% or more (almost completely withered))	5 (Herbicidal ratio of 90% or more (almost completely withered))	4 (Herbicidal ratio of 70% or higher and lower than 90%)	5 (Herbicidal ratio of 90% or more (almost completely withered))
COCCON=C(C)CC1CC(O)=C(c2c(C)cc(C)cc2C)C1=O (stereo not drawn) [1-041]	5 (Herbicidal ratio of 90% or more (almost completely withered))	5 (Herbicidal ratio of 90% or more (almost completely withered))	3 (Herbicidal ratio of 40% or higher and lower than 70%)	5 (Herbicidal ratio of 90% or more (almost completely withered))	5 (Herbicidal ratio of 90% or more (almost completely withered))	3 (Herbicidal ratio of 40% or higher and lower than 70%)	5 (Herbicidal ratio of 90% or more (almost completely withered))
CON=C(C)CC1CC(OC(=O)COc2ccc(Cl)cc2)=C(c2c(C)cc(C)cc2C)C1=O (stereo not drawn) [1-044]	5 (Herbicidal ratio of 90% or more (almost completely withered))	5 (Herbicidal ratio of 90% or more (almost completely withered))	5 (Herbicidal ratio of 90% or more (almost completely withered))	5 (Herbicidal ratio of 90% or more (almost completely withered))	5 (Herbicidal ratio of 90% or more (almost completely withered))	2 (Herbicidal ratio of 20% or higher and lower than 40%)	5 (Herbicidal ratio of 90% or more (almost completely withered))
CON=C(CC1CC(O)=C(c2c(C)cc(C)cc2C)C1=O)c1ccccn1 (stereo not drawn) [1-045]	2 (Herbicidal ratio of 20% or higher and lower than 40%)	0 (Herbicidal ratio of 5% or lower (almost no effect))	0 (Herbicidal ratio of 5% or lower (almost no effect))	5 (Herbicidal ratio of 90% or more (almost completely withered))	5 (Herbicidal ratio of 90% or more (almost completely withered))	0 (Herbicidal ratio of 5% or lower (almost no effect))	5 (Herbicidal ratio of 90% or more (almost completely withered))
CC(CC1CC(O)=C(c2c(C)cc(C)cc2C)C1=O)=NOCC=CCl (stereo not drawn) [1-056]	5 (Herbicidal ratio of 90% or more (almost completely withered))	5 (Herbicidal ratio of 90% or more (almost completely withered))	4 (Herbicidal ratio of 70% or higher and lower than 90%)	5 (Herbicidal ratio of 90% or more (almost completely withered))	5 (Herbicidal ratio of 90% or more (almost completely withered))	2 (Herbicidal ratio of 20% or higher and lower than 40%)	5 (Herbicidal ratio of 90% or more (almost completely withered))
CON=C(CC1CC(OC(=O)COc2ccccc2)=C(c2c(C)cc(C)cc2C)C1=O)C1CC1 (stereo not drawn) [1-063]	3 (Herbicidal ratio of 40% or higher and lower than 70%)	5 (Herbicidal ratio of 90% or more (almost completely withered))	2 (Herbicidal ratio of 20% or higher and lower than 40%)	5 (Herbicidal ratio of 90% or more (almost completely withered))	5 (Herbicidal ratio of 90% or more (almost completely withered))	0 (Herbicidal ratio of 5% or lower (almost no effect))	5 (Herbicidal ratio of 90% or more (almost completely withered))
CON=C(C)CC1CC(OC(=O)C(C)(C)Oc2ccccc2Cl)=C(c2c(C)cc(C)cc2C)C1=O (stereo not drawn) [1-064]	5 (Herbicidal ratio of 90% or more (almost completely withered))	5 (Herbicidal ratio of 90% or more (almost completely withered))	3 (Herbicidal ratio of 40% or higher and lower than 70%)	3 (Herbicidal ratio of 40% or higher and lower than 70%)	5 (Herbicidal ratio of 90% or more (almost completely withered))	2 (Herbicidal ratio of 20% or higher and lower than 40%)	5 (Herbicidal ratio of 90% or more (almost completely withered))
CON=C(C)CC1CC(OC(=O)C(C)(C)Oc2cccc(Cl)c2)=C(c2c(C)cc(C)cc2C)C1=O (stereo not drawn) [1-065]	5 (Herbicidal ratio of 90% or more (almost completely withered))	5 (Herbicidal ratio of 90% or more (almost completely withered))	4 (Herbicidal ratio of 70% or higher and lower than 90%)	5 (Herbicidal ratio of 90% or more (almost completely withered))	5 (Herbicidal ratio of 90% or more (almost completely withered))	2 (Herbicidal ratio of 20% or higher and lower than 40%)	5 (Herbicidal ratio of 90% or more (almost completely withered))
